Measurements reported in patent publication US20260347361A1, “LRRK2 INHIBITORS AND USES THEREOF” (NEURON23, INC, priority 2022, published 2026).

Target: T1, wt human LRRK2 (Homo sapiens, UniProt Q5S007)
T1 construct: wt human LRRK2, catalytic site, catalytic site (ThermoFisher/USA); purchased ThermoFisher
Assay: TR-FRET LanthaScreen Tb Kinase Activity Assay, inhibition of LRRK2 kinase
Assay type: biochemical
Settings: 2 nM wt human LRRK2, 400 nM fluorescein-ERM (LRRKtide) peptide, 38 µM ATP, 15 min pre-incubation, 120 min at room temperature
Description: In Table 2, activity is provided as the following: “+++”=IC50 less than 50 nM; “++”=IC50 between 50 nM and 200 nM; “+”=IC50> or =200 nM.
The compounds listed in Table 2 were tested for their inhibitory effect on LRRK2 kinase according to the following procedures.
The protocol for basic TR-FRET LanthaScreen Tb Kinase Activity Assay inhibitor studies were as follows. LanthaScreen Kinase Activity Assays (ThermoFisher/USA) to evaluate inhibitors were performed by addition of 100 nl of test compound in corresponding DMSO dilutions/5 μl of kinase/fluorescein-ERM(LRRKtide) peptide mixture, Compound & kinase were pre-incubated for 15 minutes, then 5 μl of ATP into 384 well small volume plates. After incubation for 120 minutes at room temperature, the detection reagents containing Tb-anti-pLRRKtide antibody were added to monitor phosphorylation level of peptide. Then, after 60 min minutes incubation at room temperature plates were read in Envision. Data analysis of emission ratios was according to LanthaScreen Tb Kinase Activity Assay protocol.
Kinase and assay components were adjusted to final concentrations according to the kit protocol. For LRRK2: 2 nM wt human LRRK2, catalytic site, catalytic site (ThermoFisher/USA), 400 nM peptide, 38 µM ATP in 1× Kinase Buffer A.
Basic protocol for TR-FRET LanthaScreen Tb Kinase Activity Assay inhibitor studies involved two steps:
Enzymatic step: Addition of […] of test compound in corresponding DMSO dilutions, 5 μL of kinase/substrate mixture, 5 μL of ATP into 384 well small volume plates. Incubation for 120 minutes at room temperature.
Detection step: Addition of 10 μL EDTA & antibody, read plate after 60 minutes. Data analysis of emission ratios according to KinEASE assay protocol.
Kinase and assay components were adjusted to final concentrations according to the kit protocol.

T1 sequence (Q5S007 970-2527 limits assumed): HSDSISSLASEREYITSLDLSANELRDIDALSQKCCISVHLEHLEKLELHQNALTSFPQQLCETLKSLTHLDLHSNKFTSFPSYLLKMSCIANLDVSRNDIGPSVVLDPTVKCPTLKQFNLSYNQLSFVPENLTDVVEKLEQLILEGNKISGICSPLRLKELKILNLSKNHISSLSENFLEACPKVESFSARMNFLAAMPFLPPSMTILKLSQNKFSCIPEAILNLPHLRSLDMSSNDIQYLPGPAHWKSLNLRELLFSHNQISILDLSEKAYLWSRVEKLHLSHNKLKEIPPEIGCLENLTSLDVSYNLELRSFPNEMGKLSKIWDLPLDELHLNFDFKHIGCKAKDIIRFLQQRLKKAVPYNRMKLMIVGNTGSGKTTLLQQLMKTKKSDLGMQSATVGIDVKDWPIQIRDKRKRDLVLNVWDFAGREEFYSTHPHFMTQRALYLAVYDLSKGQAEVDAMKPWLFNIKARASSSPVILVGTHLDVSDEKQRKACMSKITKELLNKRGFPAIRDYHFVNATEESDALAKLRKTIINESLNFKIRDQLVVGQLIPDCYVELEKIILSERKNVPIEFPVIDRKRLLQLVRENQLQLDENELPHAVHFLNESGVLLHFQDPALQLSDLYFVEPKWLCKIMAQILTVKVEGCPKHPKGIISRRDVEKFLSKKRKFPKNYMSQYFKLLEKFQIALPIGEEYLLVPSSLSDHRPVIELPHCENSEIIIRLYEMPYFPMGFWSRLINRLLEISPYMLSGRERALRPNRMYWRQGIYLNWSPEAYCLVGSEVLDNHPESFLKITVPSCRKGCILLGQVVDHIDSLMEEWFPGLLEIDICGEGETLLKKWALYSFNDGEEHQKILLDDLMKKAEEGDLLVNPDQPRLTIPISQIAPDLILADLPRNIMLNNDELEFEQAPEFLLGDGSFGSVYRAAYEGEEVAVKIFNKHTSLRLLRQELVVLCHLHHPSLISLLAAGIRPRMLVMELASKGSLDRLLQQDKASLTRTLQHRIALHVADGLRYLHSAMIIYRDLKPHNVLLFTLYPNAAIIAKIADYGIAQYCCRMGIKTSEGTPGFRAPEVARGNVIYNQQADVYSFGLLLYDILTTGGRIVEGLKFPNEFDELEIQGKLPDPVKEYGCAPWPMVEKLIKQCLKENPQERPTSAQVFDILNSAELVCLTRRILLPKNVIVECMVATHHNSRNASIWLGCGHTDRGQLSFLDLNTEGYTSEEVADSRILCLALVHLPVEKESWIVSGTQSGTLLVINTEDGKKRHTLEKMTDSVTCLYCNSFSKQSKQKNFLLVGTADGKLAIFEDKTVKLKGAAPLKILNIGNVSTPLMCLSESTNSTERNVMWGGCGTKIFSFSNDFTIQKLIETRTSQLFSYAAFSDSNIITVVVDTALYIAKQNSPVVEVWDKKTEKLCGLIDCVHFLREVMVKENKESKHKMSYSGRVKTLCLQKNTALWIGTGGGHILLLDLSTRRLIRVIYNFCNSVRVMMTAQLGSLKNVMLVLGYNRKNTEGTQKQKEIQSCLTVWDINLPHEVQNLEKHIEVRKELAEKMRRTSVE

| Structure (SMILES) | IC50 [nM] |
| --- | --- |
| O=S1(=O)CCN(c2ccc3c(c2)-n2ncc(Cl)c2N=C(c2c(F)cccc2F)N3)CC1 | < 50 |
| Fc1cccc(F)c1C1=Nc2c(Cl)cnn2-c2cc(-c3cn[nH]c3)ccc2N1 | < 50 |
| CC(C)S(=O)(=O)NC(=O)c1ccc2c(c1)-n1ncc(Cl)c1N=C(c1c(F)cccc1F)N2 | > 200 |
| Fc1cccc(F)c1C1=Nc2c(Cl)cnn2-c2cc(N3CCOCC3)cnc2N1 | < 50 |
| OC1CCN(c2ccc3c(c2)-n2ncc(Cl)c2N=C(c2c(F)cccc2F)N3)C1 (racemic) [1-[3-chloro-5-(2,6-difluorophenyl)-6H-pyrazolo[1,5-a][1,3,5]benzotriazepin-9-yl]pyrrolidin-3-ol] | < 50 |
| COC1CCN(c2ccc3c(c2)-n2ncc(Cl)c2N=C(c2c(F)cccc2F)N3)C1 (racemic) [3-chloro-5-(2,6-difluorophenyl)-9-(3-methoxypyrrolidin-1-yl)-6H-pyrazolo[1,5-a][1,3,5]benzotriazepine] | < 50 |
| Fc1cccc(F)c1C1=Nc2c(Cl)cnn2-c2cc(N3CC4CC3CO4)ccc2N1 (racemic) [5-(3-chloro-5-(2,6-difluorophenyl)-6H-benzo[f]pyrazolo[1,5-a][1,3,5]triazepin-9-yl)-2-oxa-5-azabicyclo[2.2.1]heptane] | < 50 |
| Fc1cccc(F)c1C1=Nc2c(Cl)cnn2-c2cc(N3CCC34COC4)ccc2N1 [1-[3-chloro-5-(2,6-difluorophenyl)-6H-pyrazolo[1,5-a][1,3,5]benzotriazepin-9-yl]-6-oxa-1-azaspiro[3.3]heptane] | < 50 |
| Fc1cccc(F)c1C1=Nc2c(Cl)cnn2-c2cc(N3CC4CCC(C3)O4)ncc2N1 [3-(3-Chloro-5-(2,6-difluorophenyl)-6H-pyrazolo[1,5-a]pyrido[3,4-f][1,3,5]triazepin-9-yl)-8-oxa-3-azabicyclo[3.2.1]octane] | < 50 |
| Fc1cccc(F)c1C1=Nc2c(Cl)cnn2-c2cc(N3CC4CC(C3)O4)ccc2N1 [3-[3-chloro-5-(2,6-difluorophenyl)-6H-pyrazolo [1,5-a][1,3,5]benzotriazepin-9-yl]-6-oxa-3-azabicyclo [3.1.1]heptane] | < 50 |
| O=C(NO)c1ccc2c(c1)-n1ncc(Cl)c1N=C(c1c(F)cccc1F)N2 [3-chloro-5-(2,6-difluorophenyl)-6H-pyrazolo[1,5-a][1,3,5]benzotriazepine-9-carbohydroxamic acid] | < 50 |
| NC(=O)c1ccc2c(c1)-n1ncc(Cl)c1N=C(c1c(F)cccc1F)N2 [3-chloro-5-(2,6-difluorophenyl)-6H-pyrazolo[1,5-a][1,3,5]benzotriazepine-9-carboxamide] | < 50 |
| Cn1cc(-c2ccc3c(c2)-n2ncc(Cl)c2N=C(c2c(F)cccc2F)N3)cn1 [3-chloro-5-(2,6-difluorophenyl)-9-(1-methylpyrazol-4-yl)-6H-pyrazolo[1,5-a][1,3,5]benzotriazepine] | < 50 |
| Fc1cccc(F)c1C1=Nc2c(Cl)cnn2-c2cc(N3CCC(F)(F)C3)ccc2N1 [3-chloro-5-(2,6-difluorophenyl)-9-(3,3-difluoropyrrolidin-1-yl)-6H-pyrazolo[1,5-a][1,3,5]benzotriazepine] | < 50 |
| Fc1cccc(F)c1C1=Nc2c(Cl)cnn2-c2cc(N3CC(F)C3)ccc2N1 [3-chloro-5-(2,6-difluorophenyl)-9-(3-fluoroazetidin-1-yl)-6H-pyrazolo[1,5-a][1,3,5]benzotriazepine] | < 50 |
| COC1CN(c2ccc3c(c2)-n2ncc(Cl)c2N=C(c2c(F)cccc2F)N3)C1 [3-chloro-5-(2,6-difluorophenyl)-9-(3-methoxyazetidin-1-yl)-6H-pyrazolo[1,5-a][1,3,5]benzotriazepine] | < 50 |
| CN1CCN(c2ccc3c(c2)-n2ncc(Cl)c2N=C(c2c(F)cccc2F)N3)CC1 [3-chloro-5-(2,6-difluorophenyl)-9-(4-methylpiperazin-1-yl)-6H-pyrazolo[1,5-a][1,3,5]benzotriazepine] | < 50 |
